Results taken from patent US20250188143A1, “COMBINED GENE AND RADIO THERAPY FOR THE TREATMENT OF CANCER” (FUNDACION PARA LA INVESTIGACION MEDICA APLICADA, priority 2022, published 2025).
Where two headings read alike, the source gives them in different places.

Legend:
established tumors = settings: intratumor injections; STING-dependent; cited from earlier work
MC38 cells [1] = assay: Synergism proof of principle II, IL-12 mRNA; assay type: cell-based, murine; settings: cells transduced with AAV8-hSTINGmut plus AAV8-ISREx4-IL12miR122T
Experimental: […] The resuspended viral particles were then added to the wells where the cells were seeded. […] The IL-12 mRNA was determined by qPCR as described above (example 3) and expression levels were quantified in reference to non-transduced, non-irradiated cells treated with vehicle.

[2] = human, in vivo; cited from earlier work
hSTINGmut [3] = target: T1, hSTINGmut (Homo sapiens, UniProt Q86WV6, G230I/H232R/Q266I/S162A); assay: Time-course expression of STING-derived cytokines upon DMXAA treatment; assay type: cell-based; settings: MC38 and Hep2G cells encoding hSTINGmut; 50 μg/mL DMXAA; any given timepoint
T1 construct: expressed in transfected cells
Experimental: The objective of this experiment was to examine the time-course of STING-derived cytokine expression upon DMXAA treatment. As a readout, the expression of STING-derived cytokines was measured by qPCR.
To this end, stable cell lines of MC38 and Hep2G cells encoding hSTINGmut have been obtained as described above. […] Cells were harvested and prepared for qPCR measurements as described above.

HEK293 cells = assay: Synergism proof of principle III, IFN-β and IL-12 mRNA; assay type: cell-based, human; settings: for IFN-β expression levels: hSTINGmut expressing HEK293 cells
Experimental: The IFN-β and the IL-12 mRNA expression levels were determined by qPCR as described above (example 1) and expression levels were quantified in reference to the indicated controls.

[4] = target: hSTING[R]-S162A/G230I/Q266I (Homo sapiens, UniProt Q86WV6, G230I/H232R/Q266I/S162A); settings: cited from earlier work
hSTINGwt = target: T2, hSTINGwt (Homo sapiens, UniProt Q86WV6, H232R); assay: DMXAA mediated expression of STING-derived cytokines (qPCR); assay type: cell-based; settings: other groups (luciferase, hSTINGwt, no vector); 50 μg/mL DMXAA
T2 construct: expressed in transfected cells
Experimental: (§1) As a readout, the expression of STING-derived cytokines was measured by qPCR.
(§2) To this end, MC38 and Hep2G cells have been transduced with lentiviruses encoding luciferase, hSTINGwt, hSTINGmut to obtain stable cell lines as described above or were not transduced with any lentivirus (no vector). Respective cells were seeded in 24-well plates at a density of 750 cells/mm^2 in growth medium. […] Cells were harvested and prepared for qPCR measurements as described above. The expression of the cytokines IFN-β, TNF-α, IL-6, CXCL9 and CXCL10 were measured for either experimental group and expression levels relative to controls (no vector) were quantified.

hSTINGmut [5] = target: T1, hSTINGmut; assay: as above; assay type: cell-based; settings: hSTINGmut-transduced MC38 and Hep2G cells; 50 μg/mL DMXAA, 3 h or 6 h
Experimental: as §1, §2

MC38 tumors = assay: Synergism of DMXAA and radiotherapy in a humanized mouse model in vivo, cytokine levels; design: species or system STING KO mice; settings: tumor extracts 6 h after DMXAA 20 mg/kg; irradiated
MC38 cells [6] = assay: Synergism proof of principle I, IFN-β mRNA; assay type: cell-based, murine
Experimental: To this end, MC38 cells received 8 Gy or 0 Gy as described above (example 7). Cells were seeded thereafter at 750 cells/mm^2 density and were then either mock-transduced or transduced with AAV8-hSTINGmut (1×10^5 viral genomes/cell). For cell transduction 8.5×10^9 viral genomes of AAV8-hSTINGmut from known concentration stock solutions, were resuspended in 50 μl RPMI 2% FBS. The resuspended viral particles were then added to the wells where the cells were seeded.

[7] = system: native non-transduced MC38 cells; assay: Synergism proof of principle IV, IFN-β protein; assay type: cell-based, murine
Text: To this end, native non-transduced MC38 cells received 0 Gy, 2 Gy or 8 Gy as described above.

human STING = human STING (Homo sapiens, UniProt Q86WV6, H232R); settings: cited from earlier work
STING = system: STING
Experimental: C57 wild type mice, aged 6 to 10 weeks, were injected intravenously with an AAV8 vector encoding either hSTINGmut (AAV8-hSTINGmut, 1×10^11 viral genomes) or as a control GFP (AAV8-GFP, 1.5×10^11 viral genomes).

[8] = 5 or 10 mg DMXAA/kg, AAV8-hSTINGmut transduced mice

T1 sequence (Q86WV6 whole entry S162A/G230I/H232R/Q266I): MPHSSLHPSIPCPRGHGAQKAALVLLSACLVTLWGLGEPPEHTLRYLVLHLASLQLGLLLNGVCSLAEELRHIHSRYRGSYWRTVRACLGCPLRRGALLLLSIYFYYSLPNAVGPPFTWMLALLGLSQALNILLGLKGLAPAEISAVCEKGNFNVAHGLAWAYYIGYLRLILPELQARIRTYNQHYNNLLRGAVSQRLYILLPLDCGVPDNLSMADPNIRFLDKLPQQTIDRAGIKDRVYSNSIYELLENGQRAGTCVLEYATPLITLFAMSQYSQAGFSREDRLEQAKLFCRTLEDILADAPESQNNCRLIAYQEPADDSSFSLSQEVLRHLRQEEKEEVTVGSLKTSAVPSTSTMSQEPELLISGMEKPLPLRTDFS
Sequence of hSTING[R]-S162A/G230I/Q266I (Q86WV6 whole entry S162A/G230I/H232R/Q266I): as above
T2 sequence (Q86WV6 whole entry H232R): as the sequence (Q86WV6 whole entry S162A/G230I/H232R/Q266I) above, with A162S, I230G, I266Q counted along it
Sequence of human STING (Q86WV6 whole entry H232R): as the sequence (Q86WV6 whole entry S162A/G230I/H232R/Q266I) above, with A162S, I230G, I266Q counted along it

In the case of `Cc1ccc2c(=O)c3cccc(CC(=O)O)c3oc2c1C` [DMXAA, 5,6-Dimethylxanthenone-4-acetic acid], the “CD8+ T cell priming and tumor elimination” value (established tumors) is given as “effectively prime CD8+ T cell responses and promote elimination of the established tumors”, the “IL-12 mRNA levels” value (MC38 cells [1]; irradiated with 8 Gy) is given as “strong elevation” and the “IL-12 mRNA levels” value (MC38 cells [1]; non-irradiated) is given as “slight elevation”. For the same compound, the “efficacy in clinical trials” value [2] was “lack of efficacy”, the “tolerability in clinical trials” value [2] was “well tolerated and only displayed minor side effects” and the “time-course of STING-derived cytokine expression” value (hSTINGmut [3]) was “increase in expression levels”. The IL-12 expression levels (HEK293 cells; HEK293 cells expressing ISREx4-IL12miR122T, radiation and further DMXAA treatment) was “significant increase in IL-12 expression levels”, the IFN-β expression levels (HEK293 cells; DMXAA 50 μg/mL) was “upregulated” and the IFN-β expression levels (HEK293 cells; DMXAA plus additional irradiation 8 Gy) was “significantly increased”. For the same compound, the “activation of hSTING[R]-S162A/G230I/Q266I” value [4] was “highly activated”, the “expression of cytokines IFN-β, TNF-α, IL-6, CXCL9 and CXCL10” value (hSTINGwt) was “no significant alteration” and the “expression of cytokines IFN-β, TNF-α, IL-6, CXCL9 and CXCL10” value (hSTINGmut [5]) was “elevated”. For the same compound, the “intratumor levels of IL-12” value (MC38 tumors) was “increased significantly”, the “IFN-β mRNA expression” value (MC38 cells [6]; hSTINGmut-transduced MC38, 8 Gy, DMXAA 50 μg/mL 6 h) was “further increased” and the “IFN-β mRNA expression” value (MC38 cells [6]; hSTINGmut-transduced MC38, no irradiation, DMXAA) was “intermediate expression”. The “IFN-β mRNA expression” value (MC38 cells [6]; non-transduced MC38, 8 Gy, DMXAA 50 μg/mL 6 h) was “increase in IFN-β expression”, the “IFN-β production (ELISA)” value ([7]; 8 Gy plus DMXAA at different doses, 24 h or 48 h) was “exceeding the sum of those obtained with radiation alone and DMXAA alone” and the “IFN-β production (ELISA)” value ([7]; single dose 8 Gy, DMXAA 50 μg/mL 24 h later, collected after another 24 h) was “enhanced”. The “activation of human STING” value (human STING) was “unable to activate”, the “IFN-β levels in serum” value (STING; 20 mg DMXAA/kg i.p., AAV8-GFP transduced control animals, 3 h after injection) was “elevation of IFN-β levels” and the toxicity and mortality (STING; 20 mg DMXAA/kg repeated, AAV8-GFP and AAV8-hSTINGmut mice (systemic STING stimulation)) was “high toxicity and mortality”. For the same compound, the “IFN-β levels in serum” value (STING; [8]) was “only very low levels” and the toxicity and mortality (STING; [8]) was “neither cause significant toxicity nor mortality”.
